Patent US6784155B1, “Inhibitor and stimulator of stem cell proliferation and uses thereof” (Wellstat Therapeutics Corporation, priority 1996, dated 2004)
Positions of bridges follow the written chain, without caps; N, C: chain ends. No end group written: not given here.

B1: MIP-1α: cytokine macrophage inflammatory protein 1-alpha, previously characterized stem cell inhibitor (protein, UniProt P10147 24-92, looked up)
C-C motif chemokine 3: SLAADTPTACCFSYTSRQIPQNFIADYFETSSQCSKPGVIFLTKRSRQVCADPSEEWVQKYVSDLELSA

How the values were obtained:
CFU-GEMM = CFU-GEMM cycling assay, human umbilical cord blood cells; format: cell-based; details: Table 32, cord blood mononuclear cells
Protocol: In order to investigate the ability of purified INPROL from porcine bone marrow to affect cycling on human progenitors, umbilical cord blood cells were obtained. Either the total mononuclear cell fraction obtained after separation on Ficoll or the CD34^+ fraction obtained after fractionation on anti-CD34 affinity columns (CellPro Inc.) was used. Cells were incubated for 48 hours in vitro in the presence of interleukin 3 (IL-3) and stem cell factor (SCF) (100 ng/ml each) in order to ensure that the early stem cells were in cycle. After this preincubation, cycling assays were conducted as described in Example 14 for the mouse except that CFU-GEMM (instead of CFU-MIX) were counted on Day 18 after plating.
The human cord blood CFU-GEMM cycling assay was conducted as in Example 19. Specifically, mononuclear cells were isolated from human umbilical cord blood cells and adjusted to 24×10^4 cells/ml in IMDM tissue culture medium supplemented with 10% FBS, 100 ng/ml kit ligand and 100 ng/ml human IL-3. The cells were incubated for 48 hours at 37° C.
After incubation, cells were washed and resuspended in serun-free NDM at a concentration of 10^6 cells/ml. One ml of cells was added to each of two polypropylene tubes per condition and the cycling assay conducted as in Example 24 for mouse bone marrow. After the Ara C incubation cells were washed with cold NDM and adjusted to 10,000 to 20,000 cells per 0.5 ml IMDM and mixed with 5 ml Methocult H4433 (Stem Cell Technologies). Alternatively, Methocult H4435 methylcellulose medium (Stem Cell Technologies) was used in which case the cell concentration was adjusted to 2500-5000 cells per 0.5 ml IMDM. The cells were plated as in Example 24 and CFU-GEMM colonies scored on days 14-18.

[1] = Distribution of ubiquitin fusion proteins between soluble fraction and precipitate of E. coli lysate (SDS-PAGE); format: physicochemical; details: after centrifugation of the bacterial lysate
Protocol: To obtain protein for assay, 100 ml starter cultures in 250 ml shake flasks were grown from single colonies by overnight incubation (16-20 hours) in 2×YT medium with ampicillin (100 μg/ml), neomycin (10 μg/ml) and 1% glucose. Shaker flask cultures were maintained at 30° C. and 250 rpm in a New Brunswick environmental shaker incubator. The next morning the culture was diluted to liter with medium Cells were induced by IPTG addition to 1 mM (final dilution) at OD600=0.5 and harvested at OD600=0.8 by centrifugation. The harvested cells were resuspended in hypotonic lysis buffer (100 μl of 50 mM Tris, pH 10.0). The bacterial cells were lysed by subjecting the suspension to three cycles of freeze-thaw (dry ice-ethanol bath for freezing and 60° C. for thawing). The suspension was then sonicated for 10 min and centrifuged at 12,000 g for 10 min. The resulting supernatant was designated as “S1”. The cell pellet was resuspended in 50 mM Tris, pH10 and 2×SDS tricine loading buffer (Novex, San Diego, Calif.) (1:1). The mixture was then heated at 95° C. for 15 min and centrifuged at 12,000 g for 10 min. The portion of the precipitate capable of being resolubilized in this manner was called “P1”. The portion of the precipitate derived from the remaining pellet was called “P2”. P2 was resuspended in loading buffer as for P1. Samples from S1, P1 and P2 were analyzed by SDS-PAGE. […]

CFU-MIX [2] = assay: CFU-MIX cycling assay after in vivo injection into testosterone or 5FU treated mice; parameters: species or system mouse; details: Table 23, 5FU-pretreated animals, 0.5 ng i.v. per 20 gram mouse
Protocol: In order to test the ability of purified porcine hemoglobin chains to act in vivo, BDF1 mice were injected with testosterone propionate as described in Example 1. Twenty four hours later, mice received 500 ng of either pINPROL, porcine hemoglobin alpha chain (purified from peripheral red blood cells as in FIG. 21), porcine beta chain (purified from peripheral red blood cells as in FIG. 21) or the equivalent volume of carrier intravenously. Forty eight hours later the bone marrow from each mouse was harvested and the CFU-MIX assay conducted as described in Example 14.
To assess the stem cell inhibitory activity of peptide 43-55 in vivo, B6D2 F1 mice were pre-treated with testosterone propionate as described in Example 1 or with 5FU. Specifically, testosterone propionate (100 mg/kg body weight) was injected i.p. on Day 0 into mice. Alternatively, mice were injected on Day 0 with 5FU ([…] body weight).
(§1) 24 hours later (Day 1), varying doses of peptide 43-55 or vehicle were injected i.v. Bone marrow was harvested on Day 2 and the […] cycling assay conducted as in Example 14. Specifically, mice were sacrificed and single cell bone marrow suspensions prepared from the femurs. The cells were washed once and the concentration adjusted to 5×10^6 cells/ml in Fischer medium. For each test condition, one milliliter of cells was added to each of two polypropylene tubes. The tubes were incubated at 37° C. for 3 hours without (“Control”) or with (“Experimental”) the appropriate concentration of test substance. At the end of the incubation, 30 μg/ml of cytosine arabinoside (“Ara C” (Sigma)) was added to half of the tubes and the same volume of Fischer's medium was added to the others. The tubes were incubated for a further 1 hour at 37° C., after which they were placed on ice and washed twice with cold Fischer medium.
(§2) The cells were readjusted to 5×10^4-10^6/ml in Fischer's medium and 0.5 ml of cell suspension added to 5 ml of Methocult M3430 methylcellulose medium (Stem Cell Technologies, Vancouver, British Columbia). The mixture was vigorously mixed with a vortex and 1 ml was dispensed into each of five 35 mm dishes. The 35 mm dishes were in turn placed in a covered 150 mm dish with one open 35 mm dish containing sterile water. CFU-MIX colonies were counted with the use of an inverted microscope after 7 days of incubation at 37° C.
Differences in colony number between the tubes treated with medium versus the tubes treated with Ara C represent the percentage of cells in cycle under that condition according to the formula: […]

CFU-MIX [3] = assay: CFU-MIX cycling assay in vitro (Ara C kill); format: cell-based, mouse; details: Table 19, 100 ng/ml
Protocol: A similar assay can be performed in vitro, using the cycling status of CFU-MIX instead of CFU-S. The assay is performed as described above for the CFU-S assay except that cytosine arabinoside (Ara C, 30 micrograms/ml) is used as the cycle-specific toxic agent instead of high dose tritiated thymidine (see B. I. Lord in Haemopoiesis—A Practical Approach, N. G. Testa and G. Molineux (Eds.), IRL Press 1993; Pragnell et al. in Culture of Hematopoietic Cells, R. I. Freshney, I. B. Pragnell and M. G. Freshney (Eds.), Wiley Liss 1994) and a mouse strain with high endogenous cycling rates (Balb/c) is used instead of testosterone-treated BDFI mice.
as §1, §2
Differences in colony number between the tubes treated with medium versus the tubes treated with Ara C represent the percentage of cells in cycle under that condition according to the formula:
a=Number of CFU-MIX from tube incubated with medium alone
b=Number of CFU-MIX from tube incubated with Ara C

CFU-S = CFU-S proliferation assay, 3H-Thymidine suicide method (bone marrow incubated with test fractions); format: cell-based, mouse; details: Table 8, bone marrow from testosterone treated mice
Protocol: For the detection of stem cells proliferation the number of CFU-S in S-phase of the cell cycle was measured by the ^3H-Thymidine “suicide” method (Becker et al., Blood 26:296-308, 1965).
Immature hematopoietic progenitors-Colony Forming Units in spleen (CFU-S)—can be detected in vivo by forming macroscopic colonies in the spleens of lethally irradiated mice, 8-12 days after the intravenous injection of hematopoietic cells (Till & McCulloch, 1961).
For the standard CFU-S proliferation assay the method of ^3H-Thymidine “suicide” is usually applied (Becker et al., 1965). The method is based on incorporation of radiolabelled Thymidine, (^3H-Thymidine) a precursor of DNA into cells during DNA synthesis. The CFU-S which are in S-phase of the cycle at the time of testing, are killed by the high radioactivity and therefore not able to form colonies in spleen.
The inhibitor testing can not be done with the bone marrow stem cell population from unstimulated animals, as far as the inhibitor only effects cycling CFU-S, which are as low as 7-10% of the total CFU-S population in the bone marrow of normal mice.
To stimulate CFU-S proliferation, phenylhydrazine (PHZ), or sublethal irradiation were used (Lord, 1976).
The TSP induced stimulation of CFU-S proliferation within 20-24 hours after injection and the effect could be seen for at least 7 days.
The procedure used for the screening of the fractions during purification of the Inhibitor was as follows:
Mice: BDF1 or CBF1 mice strains were used throughout all testing.
Donor mice were treated with a 10 mg/100 g dose of TSP by intraperitoneal injection of 0.2 ml/mouse in order to induce 30-35% of the CFU-S into S-phase.
Twenty-four hours later the bone marrow is taken from the femurs for the cell suspension preparation. […]
Recipient spleens are harvested on day 9-12 and fixed in Tellesnitsky's solution; the colonies are scored by eye score. The percentage of cells in S-phase are calculated using the formula. […]

mouse bone marrow cells = assay: Colony formation after pre-incubation of bone marrow cells from 5FU-treated mice; format: cell-based; details: 4 hours pre-incubation
Protocol: The purpose of this experiment was to compare the inhibitory effects of pre-incubation with pINPROL and MIP-1α on mouse bone marrow cells in vitro.
The following procedure was used:
in vivo: BDF1 mice, 6-15 weeks of age, are injected with 200 mg/kg 5FU i.p. 48 hours before harvesting marrow from the femurs.
in vitro: A single cell pooled suspension is counted and 5×10^6 cells are incubated in a total of 2 mls with or without pINPROL or MIP-1α, with 5% horse serum, IMDM media with added L-glutamine, at 37° C. and 5% CO2 for 4 hours. The cells are then washed twice and recounted. They are plated in methylcellulose in the following final conditions:
20 ng/ml recombinant murine IL-3
Plates were incubated for 11 days at 37° C. and 5% CO2 in 100% humidity. Colonies more than 50 cells were counted.

HPP-CFC = HPP-CFC assay after 4 hour pre-incubation; format: cell-based, mouse; details: 200 ng/ml, day 14
Protocol: An in vitro assay for assessing murine reconstituting stem cells and early precursors is the high proliferative potential colony ([…]) assay; other related assays, e.g., CFU-A, CFU-GM, CFU-E, and CFU-GEMM, detect progressively restricted progenitor populations (M. Moore, Blood […]:2122-2128, 1991).
BDF1 mice were treated with 5-fluorouracil (200 mg/kg i.p.) before their bone marrow was assayed for HPP-CFC numbers. Cells were washed by centrifugation and incubated at densities of 10^6 to 5×10^6/ml in medium with either no added agent (Controls), pINPROL (25 ng/ml) or MIP-1α (200 ng/ml) for 4 hours. After incubation, cells were washed and plated in agar (0.3%) with 30% FCS and combined conditioned medium from 5637 and WEHI-3B cell lines (7.5% of each conditioned medium, as recommended by Sharp et al., 1991). Plating concentration was 5×10^4 cells/ml in 60 mm dishes.

Molecule | % Kill (CFU-GEMM; 1 ng/ml) [%] | % Kill (CFU-GEMM; 10 ng) [%] | % Kill (CFU-GEMM; 100 ng/ml) [%] | fraction of bacterial lysate containing the peptide [1] | % Kill (CFU-MIX [2]) [%] | % Kill (CFU-MIX [3]) [%] | % Kill (CFU-S; 40 ng/ml) [%] | % Kill (CFU-S; 200 ng/ml) [%] | Percent of Control (mouse bone marrow cells; colonies after 11 days) [%] | Colony Number (mouse bone marrow cells; colonies more than 50 cells after 11 days) | % of Control (HPP-CFC) [%] | HPP-CFU (HPP-CFC)
Cys-Phe-Pro-His-Phe-Asp-Leu-Ser-His-Gly-Ser-Ala-Gln-Val-Cys (CFPHFDLSHGSAQVC; disulfide 1-15 (inferred)) [Cyclic Peptide 43-55, cyclic derivative of the 43-55 peptide] | 32 | 0 | 11 | contained in the soluble fraction | 14 | 0 |  |  |  |  |  | 
Hbg: C4 Reverse-phase purified porcine hemoglobin beta chain (derived from 2X crystallized pig hemoglobin) |  |  |  |  |  |  | 7 | 25 |  |  |  | 
B1 |  |  |  |  |  |  |  | 13 | 114 | 35.25 | 101 | 15.8 ± 0.9
